Data on four molecules can be found in publication PMC337094 (BMC Biochemistry, 2003).

In data set [1] the target is lumazine protein of P. leiognathi (Photobacterium leiognathi, UniProt Q06877). The data set is described as follows: […] NMR protein perturbation. Type of data set: binding. The settings on record: 20 mM phosphate pH 7.0, 100 mM KCl, 10% D2O, 11 °C.
In data set [2] the target is T1, riboflavin synthase of B. subtilis (Bacillus subtilis, UniProt P16440).
T1 sequence (P16440 1-215): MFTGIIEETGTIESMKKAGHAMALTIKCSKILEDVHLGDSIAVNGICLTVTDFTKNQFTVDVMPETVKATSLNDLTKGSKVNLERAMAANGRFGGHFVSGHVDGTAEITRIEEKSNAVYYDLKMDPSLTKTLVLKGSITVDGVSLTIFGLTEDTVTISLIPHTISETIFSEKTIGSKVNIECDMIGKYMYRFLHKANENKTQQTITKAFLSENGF
The data set is described as follows: […] NMR protein perturbation. The data set is classed as binding. As to conditions: 20 mM phosphate pH 7.0, 100 mM KCl, 10% D2O, 11 °C.

The target in data set [3] is T2, recombinant N-terminal domain of E. coli riboflavin synthase (Escherichia coli, UniProt P0AFU8).
T2 sequence (P0AFU8 1-97): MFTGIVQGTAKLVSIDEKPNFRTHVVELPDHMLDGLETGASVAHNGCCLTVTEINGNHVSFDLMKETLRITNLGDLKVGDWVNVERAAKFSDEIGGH
The data set is described as follows: […] NMR protein perturbation. Type of data set: binding. As to conditions: 20 mM phosphate pH 7.0, 100 mM KCl, 10% D2O, 11 °C.

The target in data set [4] is T3, riboflavin synthase of E. coli (Escherichia coli, UniProt P0AFU8).
T3 sequence (P0AFU8 1-213): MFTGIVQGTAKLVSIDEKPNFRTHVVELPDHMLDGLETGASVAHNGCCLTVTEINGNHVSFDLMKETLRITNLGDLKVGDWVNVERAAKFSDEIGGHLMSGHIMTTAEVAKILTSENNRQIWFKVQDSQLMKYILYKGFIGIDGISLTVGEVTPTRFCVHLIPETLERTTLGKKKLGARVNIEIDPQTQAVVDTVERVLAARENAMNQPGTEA
The data set is described as follows: […] NMR protein perturbation. Type of data set: binding. The settings on record: 20 mM phosphate pH 7.0, 100 mM KCl, 10% D2O, 11 °C.

In data set [5] the target is T4, riboflavin synthase of S. pombe (SSP-Rosy) (Schizosaccharomyces pombe, UniProt Q9Y7P0).
T4 sequence (Q9Y7P0 1-208): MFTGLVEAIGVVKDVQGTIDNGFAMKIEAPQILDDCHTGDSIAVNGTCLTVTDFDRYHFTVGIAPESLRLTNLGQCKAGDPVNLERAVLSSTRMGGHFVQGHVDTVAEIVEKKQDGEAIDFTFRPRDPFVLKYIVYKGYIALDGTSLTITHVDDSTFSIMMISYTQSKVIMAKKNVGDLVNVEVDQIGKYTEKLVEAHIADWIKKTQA
The data set is described as follows: […] NMR protein perturbation. As to conditions: 20 mM phosphate pH 7.0, 100 mM KCl, 10% D2O, 11 °C. Type of data set: binding.

For data set [6], the target named is T4, riboflavin synthase of S. pombe (SSP-Rosy). The data set is described as follows: […] NMR displacement of compound 6a. Type of data set: binding. As to conditions: 20 mM phosphate pH 7.0, 100 mM KCl, 10% D2O, 11 °C; data not shown.
The data set “AUC” concerns the molecule itself. The data set is described as follows: AUC.

Sequence of lumazine protein of P. leiognathi (Q06877 whole entry): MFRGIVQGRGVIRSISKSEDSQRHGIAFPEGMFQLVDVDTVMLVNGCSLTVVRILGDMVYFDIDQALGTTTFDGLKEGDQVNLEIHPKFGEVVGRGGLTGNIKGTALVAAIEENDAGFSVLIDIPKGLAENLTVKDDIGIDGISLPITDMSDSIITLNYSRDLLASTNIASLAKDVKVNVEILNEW

As to `O=c1[nH]c(=O)c2nc(C(F)(F)F)c(=O)n(C[C@H](O)[C@H](O)[C@H](O)CO)c2[nH]1` [compound 7, 6-trifluoromethyl-7-oxo-8-ribityllumazine], the “19F NMR bound-ligand signal” value was “lumazine protein (Fig. 5A)” in data set [1]; “B. subtilis (Fig. 5D) show similar signal multiplicities” in data set [2]; “show single and much narrower lines for the protein bound ligand” in data set [3]; “The riboflavin synthases of E. coli (Fig. 5C)” in data set [4]; “in complex with riboflavin synthase of S. pombe shows four signals” in data set [5].

Turning to `Cc1cc2nc3c(=O)[nH]c(=O)nc-3n(C[C@H](O)[C@H](O)[C@H](O)CO)c2cc1C` [compound 4, riboflavin], in data set [6], the “19F NMR displacement of compound 6a” value is given as “could be displaced from S. pombe protein by addition of riboflavin”.

Consider `O=c1[nH]c2c(c(=O)[nH]1)N=C(C(F)(F)F)[C@@](O)(C(F)(F)F)N2C[C@H](O)[C@H](O)[C@H](O)CO` (single isomer, unassigned; epimer a) [6a, 6,7-bis(trifluoromethyl)-8-ribityllumazine hydrate (epimer A)], for which the “19F NMR bound-ligand signal” value is given as “show single lines for each trifluoromethyl group of bound Compound 6a” in data set [1]; “the riboflavin synthases (Figs. 6C,6D,6E) studied show multiple signals” in data set [2]; “show single lines for each trifluoromethyl group of bound Compound 6a” in data set [3]; “the riboflavin synthases (Figs. 6C,6D,6E) studied show multiple signals” in data set [4]; “riboflavin synthase of S. pombe binds epimer A” in data set [5].

B1: Riboflavin synthase of Schizosaccharomyces pombe (enzyme, UniProt Q9Y7P0 1-208, looked up)
chain: MFTGLVEAIGVVKDVQGTIDNGFAMKIEAPQILDDCHTGDSIAVNGTCLTVTDFDRYHFTVGIAPESLRLTNLGQCKAGDPVNLERAVLSSTRMGGHFVQGHVDTVAEIVEKKQDGEAIDFTFRPRDPFVLKYIVYKGYIALDGTSLTITHVDDSTFSIMMISYTQSKVIMAKKNVGDLVNVEVDQIGKYTEKLVEAHIADWIKKTQA
For B1, the “stoichiometry N” value in the data set “AUC” was 3.

A word on the stoichiometry N: it is the number of molecules, sites or subunits per partner or assembly.
